# Non-standard residues stand in square brackets, D forms with d. Residues, ends and D or L forms follow the SMILES beside them. *: point of attachment. Tos = Cc1ccc(S(=O)(=O)*)cc1; Thz = O=C(O)[C@@H]1CSCN1
# Test system: Experimental Autoimmune Encephalomyelitis (EAE) model, motor impairment
# Assay: In vivo evaluation - Experimental Autoimmune Encephalomyelitis (EAE)
# Parameters: species or system Lewis rats or Hartley guinea pigs
# Settings: active = delayed onset of symptoms, e.g. clinical scores no greater than 2 or slowed body weight loss as compared to the control; treatment from Day 8, bid, five days
row,SMILES,activity in EAE model (delay of onset of symptoms)
1,"Cc1ccc(S(=O)(=O)N2CCC[C@H]2C(=O)N[C@@H](Cc2ccccc2)C(=O)O)cc1 [Example 3, N-(Toluene-4-sulfonyl)-L-prolyl-L-phenylalanine] (Tos-Pro-Phe-OH)",active

# Test system: not given
# Assay: not given
# Settings: not given
row,SMILES,melting point [°C]
1,"Cc1ccc(S(=O)(=O)N2CCC[C@H]2C(=O)NC(Cc2nc[nH]n2)C(=O)O)cc1 (mixture of isomers) [Example 66, N-(Toluene-4-sulfonyl)-L-prolyl-D,L-β-(1,2,4-triazol-3-yl)alanine]",153 to 163
2,"COC(=O)c1ccccc1S(=O)(=O)N1CCC[C@H]1C(=O)N[C@@H](Cc1ccccc1)C(=O)O [Example 18, N-(2-Methoxycarbonylbenzenesulfonyl)-L-prolyl-L-phenylalanine]",163 to 165
3,"O=C(O)[C@H](Cc1ccccc1)NC(=O)[C@@H]1CCCN1S(=O)(=O)c1ccc(Cl)cc1 [Example 10, N-(4-Chlorobenzenesulfonyl)-L-prolyl-L-phenylalanine]",69 to 71
4,"Cc1ccc(S(=O)(=O)N2CSC[C@H]2C(=O)N[C@@H](Cc2ccccc2)C(=O)O)cc1 [Example 20, N-(Toluene-4-sulfonyl)-L-thiaprolyl-L-phenylalanine] (Tos-[Thz]-Phe-OH)",60 to 65
5,"O=C(O)[C@H](Cc1ccccc1)NC(=O)[C@@H]1CCCN1S(=O)(=O)c1ccc([N+](=O)[O-])cc1 [Example 27, N-(4-Nitrobenzenesulfonyl)-L-prolyl-L-phenylalanine]",70 to 80
6,"Cc1ccc(S(=O)(=O)N2CCC[C@H]2C(=O)NC(Cc2ccccc2)C(=O)NCCC(=O)O)cc1 (mixture of isomers) [Example 45, N-(Toluene-4-sulfonyl)-L-prolyl-D,L-phenylalanyl-β-alanine]",91 to 95
7,"Cc1ccc(S(=O)(=O)N2CCC[C@H]2C(=O)N[C@@H](Cc2ccccc2)C(=O)NOCc2ccccc2)cc1 [Example 43, N-(Toluene-4-sulfonyl)-L-prolyl-L-phenylalanine N-Benzyloxyamide]",127 to 130

# From patent publication US6362341B1, “Benzyl compounds which inhibit leukocyte adhesion mediated by VLA-4” (Athena Neurosciences, Inc., priority 1997, dated 2002)
